PubChem BioAssay (NCI)
“And” between values parts separate entries of the source, which are not always exact repeats. Equal entries are not always repeated.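 Each compound was tested at five concentrations against cells in 96-well plates for 48 hours. GI50 marks 50% less growth. At the TGI there is no net growth.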

Experiments:
Assay in all cases: DTP human tumour cell line panel, 48 h
SNB-19 CNS = test system: SNB-19 CNS
A498 renal = test system: A498 renal
HOP-62 NSCLC = test system: HOP-62 NSCLC
ACHN renal = test system: ACHN renal
U251 CNS = test system: U251 CNS
HCT-15 colon = test system: HCT-15 colon
HOP-92 NSCLC = test system: HOP-92 NSCLC
786-0 renal = test system: 786-0 renal
SF-539 CNS = test system: SF-539 CNS
HCT-116 colon = test system: HCT-116 colon

Row | SMILES | GI50 (SNB-19 CNS) | TGI (SNB-19 CNS) | GI50 (A498 renal) | TGI (A498 renal) | GI50 (HOP-62 NSCLC) | TGI (HOP-62 NSCLC) | GI50 (ACHN renal) | TGI (ACHN renal) | GI50 (U251 CNS) | TGI (U251 CNS) | GI50 (HCT-15 colon) | TGI (HCT-15 colon) | GI50 (HOP-92 NSCLC) | TGI (HOP-92 NSCLC) | GI50 (786-0 renal) | TGI (786-0 renal) | GI50 (SF-539 CNS) | TGI (SF-539 CNS) | GI50 (HCT-116 colon) | TGI (HCT-116 colon)
1 | Cn1cncc1[C@@](N)(c1ccc(Cl)cc1)c1ccc2c(c1)c(-c1cccc(Cl)c1)cc(=O)n2C | 5.61 µM | 19.7 µM | 0.887 µM | 17.2 µM | 5.51 µM | 18.4 µM | 3.05 µM | 14.9 µM | 1.4 µM | 7.49 µM | 2.08 µM | 11.9 µM | 0.174 µM | 2.69 µM | 3.08 µM | 14 µM | 2.81 µM | 9.47 µM | 1.48 µM | 7.57 µM
2 | O=C1CC(c2ccc(N3CCOCC3)cc2)(c2ccsc2)NC(=O)C1Sc1ccccc1Cl (centres undefined) | 30.3 µM | > 100 µM | 10.4 µM | > 100 µM | 60.3 µM | > 100 µM | 47.4 µM | > 100 µM | 19.5 µM | > 100 µM | 56.7 µM | > 100 µM | 11.8 µM | > 100 µM | 6.53 µM | > 100 µM | 56.4 µM | > 100 µM | 25.4 µM | > 100 µM
3 | Nc1nc(N)c(N=O)c(Nc2ccc(O)cc2)n1 |  | > 100 µM |  | > 85.1 µM |  | > 57.2 µM |  | > 86.1 µM |  | > 100 µM |  | > 100 µM |  | > 100 µM |  | > 95.5 µM |  | 16.3 µM |  | > 100 µM
4 | CCC(C)(C)C(=O)O[C@H]1C[C@@H](C)C=C2C=C[C@H](C)[C@H](CC[C@@H]3C[C@@H](O)CC(=O)O3)[C@H]21 | 3.13 µM | 19.9 µM | 0.156 µM |  | 7.37 µM | 20.3 µM and > 30 µM | 0.882 µM | 10.3 µM and 2.38 µM | 0.371 µM | 5.44 µM and > 30 µM | 2.15 µM | 19 µM and > 30 µM | 0.0335 µM |  | 3.13 µM | 11.2 µM and > 30 µM | 11.3 µM | 24.8 µM and > 30 µM | 1.25 µM | 5.43 µM and 6.98 µM
5 | CCCN(CCCCC(NC(C)=O)C(=O)NCc1ccccc1)C(=O)N(C)N=O (centres undefined) |  | > 100 µM |  | > 100 µM |  | > 100 µM |  | > 100 µM |  | > 100 µM |  | > 100 µM |  | > 100 µM |  | > 100 µM |  | > 100 µM |  | > 100 µM
6 | COc1cc(C2=NN(C)C(c3ccc([N+](=O)[O-])o3)C2)cc(OC)c1OC (centres undefined) |  | > 100 µM |  | > 100 µM |  | > 100 µM |  | > 100 µM |  | > 100 µM |  | 32.7 µM |  | > 100 µM |  | 42.7 µM |  | > 100 µM |  | > 100 µM
7 | O=S(=O)(/C=C/c1ccc(Cl)cc1Cl)Cc1ccccc1CS(=O)(=O)/C=C/c1ccc(Cl)cc1Cl |  | > 100 µM |  | > 100 µM |  | > 100 µM |  | > 100 µM |  | > 100 µM |  | > 100 µM |  | > 100 µM |  | > 100 µM |  | > 100 µM |  | > 100 µM
8 | CCCN(CCC)C(=O)C1=Cc2ccc(-c3ccc(C(=O)N4CCCC4)cc3)cc2N=C(N)C1 | 18.8 µM | > 100 µM | 9.01 µM | 71.1 µM | 12.6 µM | 65.4 µM | 8.13 µM | 50.9 µM | 7.69 µM | 24.6 µM | 4.8 µM | 23.1 µM | 7.99 µM | 54.3 µM | 14.7 µM | 42.3 µM | 11.7 µM | 27 µM | 4.55 µM | 19.2 µM
9 | O=c1cc(-c2cccc(C(F)(F)F)c2)[nH]c2cc3c(cc12)OCO3 | 0.427 µM | 50 µM and 7.58 µM | 1.47 µM | 49.9 µM and 7 µM | 0.517 µM | 16.8 µM and 22.5 µM | 30.5 µM | 50 µM and > 100 µM | 0.145 µM |  | 0.4 µM |  |  | 50 µM | 0.902 µM | 7.91 µM and 27 µM | 0.483 µM | 2.53 µM and 6.6 µM | 1.98 µM and 0.482 µM | 19.1 µM and 29.4 µM
10 | O=S(=O)(O)O.[NH-]C1CCCCC1[NH-].[Pt+2] (centres undefined) | > 100 µM | > 100 µM | 32.3 µM | > 100 µM | > 100 µM | > 100 µM | 47.8 µM | > 100 µM | > 100 µM | > 100 µM | 61.5 µM | > 100 µM | 56.7 µM | > 100 µM | 40.7 µM | > 100 µM | > 100 µM | > 100 µM | 43.4 µM | > 100 µM
11 | COc1cc(NS(C)(=O)=O)ccc1Nc1c2ccc(Cl)cc2nc2c(OC)cccc12 | 0.135 µM | 22.3 µM | 0.156 µM | 2.24 µM | 0.0561 µM | 1.44 µM | 0.0314 µM | 1.5 µM | 0.0982 µM | 1.32 µM | 0.226 µM |  | 0.0765 µM | 2.48 µM | 0.0526 µM | 0.689 µM | 0.059 µM | 0.681 µM | 0.0794 µM | 2.05 µM
12 | C/C(CC(=O)Nc1ccc(Cl)c(Cl)c1)=N/NC(=O)C[n+]1ccccc1 |  | > 100 µM |  | > 100 µM |  | > 100 µM |  | > 100 µM |  | > 100 µM |  | > 100 µM |  | > 100 µM |  | > 100 µM |  | > 100 µM |  | > 100 µM
13 | O=c1c2cccc(Cl)c2sc2c(NCCCNCCO)nc3ccccc3c12 | 5.8 µM | 20 µM | 5.64 µM | 19.3 µM | 2.87 µM | 17.1 µM | 1.44 µM | 2.8 µM | 1.84 µM | 4.13 µM | 1.54 µM | 3.33 µM | 1.26 µM | 7.82 µM | 1.69 µM | 3.52 µM | 1.67 µM | 3.32 µM | 1.57 µM | 3.13 µM
14 | c1ccc(Cn2cc3c(c2-c2ccccc2)CCc2cnoc2-3)cc1 | 4.24 µM | > 100 µM | 7.33 µM | > 100 µM | 6.76 µM | > 100 µM | 9.36 µM | > 100 µM | 3.65 µM | > 100 µM | 3.72 µM | > 100 µM | 18 µM | > 100 µM | 6.7 µM | 69.1 µM | 5.34 µM | 38.9 µM | 3.27 µM | > 100 µM
15 | COc1ccc2c(c1)c(-c1ccc(-c3cn(S(=O)(=O)c4ccccc4)c4ccc(OC)cc34)s1)cn2S(=O)(=O)c1ccccc1 | > 100 µM | > 100 µM | > 100 µM | > 100 µM | > 100 µM | > 100 µM | > 100 µM | > 100 µM | > 100 µM | > 100 µM | > 100 µM | > 100 µM | > 100 µM | > 100 µM | > 100 µM | > 100 µM | > 100 µM | > 100 µM | > 100 µM | > 100 µM
16 | CC[C@@H](C(=O)[C@@H](C)[C@@H](O)[C@H](C)[C@@H]1O[C@@H]([C@@H](CC)C(=O)O)CC[C@@H]1C)C1O[C@]2(C=CC(=O)[C@]3(CC[C@@](C)([C@H]4CC[C@](O)(CC)[C@H](C)O4)O3)O2)[C@H](C)C[C@@H]1C (some centres undefined) | 0.4 µM | 6.96 µM | 0.0631 µM | 0.877 µM | 0.334 µM | 18.3 µM | 1.33 µM | 14.9 µM | 0.0791 µM | 13.3 µM | 0.644 µM | 14.3 µM | 1.33 µM | 8.02 µM | 0.987 µM | 14.5 µM | 0.334 µM | 10.4 µM | 0.69 µM | 15.3 µM
17 | CC1=CC(=NC(=O)CBr)C=C/C1=N\S(=O)(=O)c1ccccc1 | 13.6 µM | 26.9 µM | 14.3 µM | 28.2 µM | 11.9 µM | 25.1 µM | 2.77 µM | 8.98 µM | 3.37 µM | 12.2 µM | 1.99 µM | 4.67 µM | 1.8 µM | 6.77 µM | 3.37 µM | 10.8 µM | 3.49 µM | 12 µM | 2.05 µM | 4.97 µM
18 | C/C=C(\C)C(=O)N[C@H]1CC[C@]2(C)C3CC[C@@]4(C)C(CC[C@@H]4C(C)N(C)C)C3CCC2[C@H]1OC(C)=O (some centres undefined) | 2.1 µM | 4.13 µM | 1.43 µM | 3.51 µM | 1.76 µM | 3.46 µM | 1.98 µM | 4.2 µM | 1.55 µM | 3.56 µM | 0.762 µM | 2.4 µM | 1.24 µM | 3.47 µM | 1.54 µM | 2.95 µM | 1.16 µM | 2.53 µM | 1.04 µM | 2.42 µM
19 | Cc1nn(-c2nc3ccccc3s2)c(C)c1Oc1ccccc1O | 6.77 µM | 20.3 µM | 11.4 µM | 23.6 µM | 10.6 µM | 23.7 µM | 10.1 µM | 22.8 µM | 1.39 µM | 16.3 µM | 0.762 µM | 17.7 µM | 0.162 µM | 16.6 µM | 14.6 µM | 27.7 µM | 2.52 µM | 20.1 µM | 2.03 µM | 15.5 µM
